Test results reported in patent publication US20100021918A1, “METHOD FOR ASSAYING ACTION OF ANTITUMOR AGENT USING SPLICING DEFECTS AS INDEX” (Eisai R&D Management Co., Ltd., priority 2007, published 2010).

Test system: human colon carcinoma cell strain WiDr
Assay: Microarray analysis (2), reviewed conditions, intron expression, Table 3
Format: cell-based
Details: treated vs control; for Fold Change (change in expression level of intron probe set): WiDr cells
Experimental: WiDr cells were first suspended in RPMI1640 medium (containing 10% FBS, penicillin, and streptomycin) and seeded in a 10 cm dish (2×10^6 cells/dish). After an overnight culture in an incubator with 5% carbon dioxide gas at 37° C., the medium was changed with medium containing 14 nM of (8E,12E,14E)-7-((4-cycloheptylpiperazin-1-yl)carbonyl)oxy-3,6,16,21-tetrahydroxy-6,10,12,16,20-pentamethyl-18,19-epoxytricosa-8,12,14-trien-11-olide or containing vehicle alone. After cultured for additional six hours, TRI reagent (SIGMA) were added to the cells and the cells were harvested. RNA was purified in accordance with the protocol of TRI reagent, followed by further purification with RNeasy (QIAGEN). Absorbance at 260 nm was measured to quantify an amount of RNA. This experiment was repeated three times and RNA samples (n=3) were prepared.
Ribosomal RNA was removed from 1 μg of each total RNA of control cells (n=3) and cells with the treatment (n=3) by using RiboMinus Human/Mouse Transcriptome Isolation Kit (Invitrogen). Single stranded cDNA synthesis, double stranded cDNA synthesis, cRNA synthesis, second single stranded cDNA synthesis, cDNA fragmentation, and cDNA labeling in order were carried out for the total RNA from which ribosomal RNA was removed, by using GeneChip Whole Transcript Sense Target Labeling and Control Reagents (Affymetrix) to make a cDNA probe. The cDNA probe was used for hybridization with Human Exon 1.0 ST Array (Affymetrix). The array was washed and stained, and luminescence intensity was measured by a scanner.
Analysis conditions were reviewed in the data used in Example 3. Genes containing increased introns upon treatment with (8E,12E,14E)-7-((4-cycloheptylpiperazin-1-yl)carbonyl)oxy-3,6,16,21-tetrahydroxy-6,10,12,16,20-pentamethyl-18,19-epoxytricosa-8,12,14-trien-11-olide were identified.
In order to consider the analysis conditions, variations in the data from the samples with identical conditions were studied. […] It turned out that, by analyzing under conditions where the expression level was more than 100 and change in the expression level was more than five times, a probe set with increased expression can be extracted.
Probe sets showing that the normalized change in the level expression of the probe set in the group with the treatment was more than 5 times; the expression level of the probe set and the gene in the group with the treatment were more than 100; and probe set annotation was “extended, full, free”, were picked out. Welch's t-test was conducted with the probe sets extracted for the treated group and the control group to determine a p and q value. A gene containing the probe sets with the q value of less than 5% was determined as a candidate gene with increased expression level of the intron regions (Table 3).
In Table 3, for each gene evaluated, gene name (Gene Name), abbreviated name (Gene Symbol), accession number (Accession), alias name (Synonym), transcription cluster number in Human Exon 1.0 ST Array (Human Exon 1.0 ST Array Transcript Cluster ID), chromosome number (Chromosome), type of strand (Strand), start region (Start), stop region (Stop), and change in expression level (Fold Change) were respectively shown.

For `CCC(O)C(C)C1OC1CC(C)(O)/C=C/C=C(\C)C1OC(=O)CC(O)CCC(C)(O)C(OC(=O)N2CCN(C3CCCCCC3)CC2)/C=C/C1C` (stereo not drawn) [E7107, (8E,12E,14E)-7-((4-cycloheptylpiperazin-1-yl)carbonyl)oxy-3,6,16,21-tetrahydroxy-6,10,12,16,20-pentamethyl-18,19-epoxytricosa-8,12,14-trien-11-olide], the “Fold Change” value (gene AMD1, intron expression) was 7.90, the “Fold Change” value (gene ANLN, intron expression) was 7.90 and the “Fold Change” value (gene ANTXR2, intron expression) was 7.51. The “Fold Change” value (gene API5, intron expression) was 7.77, the “Fold Change” value (gene ATAD2, intron expression) was 7.69 and the “Fold Change” value (gene ATN1, change in expression level) was 14.70. The “Fold Change” value (gene AZIN1, intron expression) was 7.51, the “Fold Change” value (gene BAT1 // ATP6V1G2, intron expression) was 7.87 and the “Fold Change (change in expression level of intron probe set)” value (gene BAZ1B, transcript cluster 3056044) was 5.01. The “Fold Change” value (gene BCL7B, intron expression) was 7.82, the “Fold Change” value (gene BIRC6, change in expression level) was 15.96 and the “Fold Change” value (gene BNIP2, change in expression level) was 15.96. The “Fold Change (change in expression level of intron probe set)” value (gene BTF3L4, transcript cluster 2336271) was 5.01, the “Fold Change” value (gene C1orf160, intron expression) was 7.69 and the “Fold Change” value (gene C4orf30, intron expression) was 7.53. For the same compound, the “Fold Change” value (gene C10orf119, intron expression) was 7.55, the “Fold Change” value (gene C11orf57, intron expression) was 7.54 and the “Fold Change” value (gene C12orf44, intron expression) was 7.51. For the same compound, the “Fold Change” value (gene C15orf42, change in expression level) was 26.27, the “Fold Change (change in expression level of intron probe set)” value (gene CDCA5, transcript cluster 3377423) was 5.02 and the “Fold Change” value (gene CENTD1, intron expression) was 7.60. For the same compound, the “Fold Change” value (gene CERK, intron expression) was 7.52, the “Fold Change” value (gene CGI-09, change in expression level) was 16.01 and the “Fold Change” value (gene CHCHD3, intron expression) was 7.75. For the same compound, the “Fold Change” value (gene CLK3, intron expression) was 7.91, the “Fold Change” value (gene CRSP6, intron expression) was 7.49 and the “Fold Change” value (gene CSNK2A1 // CSNK2A1P, intron expression) was 7.87. For the same compound, the “Fold Change” value (gene DDX17, change in expression level) was 15.42, the “Fold Change” value (gene DDX18 // WNT8B, intron expression) was 7.70 and the “Fold Change” value (gene DDX23, change in expression level) was 15.78. The “Fold Change” value (gene DEDD, intron expression) was 7.89, the “Fold Change” value (gene DPH1 // OVCA2, intron expression) was 7.64 and the “Fold Change” value (gene EEF1A1, intron expression) was 7.70. The “Fold Change” value (gene EEF1B2, intron expression) was 7.78, the “Fold Change” value (gene EGFR, intron expression) was 7.77 and the “Fold Change (change in expression level of intron probe set)” value (gene EIF3S1, transcript cluster 3591963) was 5.02. The “Fold Change” value (gene EIF4G2, intron expression) was 7.60, the “Fold Change” value (gene FBXL11, intron expression) was 7.57 and the “Fold Change (change in expression level of intron probe set)” value (gene FBXO28, transcript cluster 2382336) was 5.02. For the same compound, the “Fold Change” value (gene FDFT1, intron expression) was 7.90, the “Fold Change” value (gene FEN1, change in expression level) was 14.75 and the “Fold Change” value (gene FOXM1, intron expression) was 7.52. The “Fold Change” value (gene GDI1, intron expression) was 7.73, the “Fold Change” value (gene GTF2H1, intron expression) was 7.62 and the “Fold Change” value (gene GTF3C2, intron expression) was 7.63. The “Fold Change” value (gene GTPBP4, intron expression) was 7.79, the “Fold Change” value (gene HIRA, intron expression) was 7.82 and the “Fold Change” value (gene HSP90AA1 // HSP90AA2 // HSP90AA6P, intron expression) was 7.53. The “Fold Change (change in expression level of intron probe set)” value (gene IDH3B, transcript cluster 3895075) was 5.01, the “Fold Change” value (gene ILF3, intron expression) was 7.68 and the “Fold Change” value (gene IRS2, intron expression) was 7.68. The “Fold Change” value (gene ITGB4BP, intron expression) was 7.55, the “Fold Change” value (gene ITGB6, intron expression) was 7.88 and the “Fold Change” value (gene JOSD3 // SNORA25 // SNORA32 // SNORA18, intron expression) was 7.81. The “Fold Change” value (gene KCTD10, intron expression) was 7.48, the “Fold Change” value (gene KIAA0174, change in expression level) was 14.78 and the “Fold Change” value (gene KIAA1967, intron expression) was 7.49. For the same compound, the “Fold Change” value (gene KITLG, intron expression) was 7.58, the “Fold Change” value (gene KLHL18, change in expression level) was 15.00 and the “Fold Change” value (gene MAP2K3, intron expression) was 7.70. For the same compound, the “Fold Change” value (gene MAP3K11, intron expression) was 7.77, the “Fold Change” value (gene MKL1, intron expression) was 7.93 and the “Fold Change (change in expression level of intron probe set)” value (gene MLL5, transcript cluster 3017547) was 5.02. The “Fold Change” value (gene MRPL17, intron expression) was 7.62, the “Fold Change” value (gene MTF2, intron expression) was 7.63 and the “Fold Change” value (gene MYST2, intron expression) was 7.60. For the same compound, the “Fold Change” value (gene NDUFA5, intron expression) was 7.48, the “Fold Change” value (gene NONO, intron expression) was 7.64 and the “Fold Change” value (gene NOP5/NOP58, intron expression) was 7.73. The “Fold Change” value (gene PAK1IP1 // C20orf7, change in expression level) was 15.04, the “Fold Change” value (gene PELI1, change in expression level) was 27.36 and the “Fold Change” value (gene PEX5, intron expression) was 7.53. The “Fold Change” value (gene PHF12, intron expression) was 7.73, the “Fold Change (change in expression level of intron probe set)” value (gene PIK4CB // RFX5, transcript cluster 2434925) was 5.03 and the “Fold Change (change in expression level of intron probe set)” value (gene POLR3O, transcript cluster 2432647) was 5.01. The “Fold Change” value (gene POMZP3, intron expression) was 7.56, the “Fold Change” value (gene PPP6C, intron expression) was 7.91 and the “Fold Change” value (gene PPRC1, intron expression) was 7.86. For the same compound, the “Fold Change” value (gene PRPF40A, intron expression) was 7.89, the “Fold Change” value (gene RBM5, intron expression) was 7.69 and the “Fold Change” value (gene RPS6KB1, intron expression) was 7.73. The “Fold Change” value (gene SAFB2, intron expression) was 7.64, the “Fold Change” value (gene SAPS3, change in expression level) was 15.25 and the “Fold Change” value (gene SDCCAG3 // SNAPC4, intron expression) was 7.49. The “Fold Change (change in expression level of intron probe set)” value (gene SHB // CKAP2 // MCART1, transcript cluster 3205659) was 5.00, the “Fold Change” value (gene SIN3A, intron expression) was 7.60 and the “Fold Change” value (gene SMAD5, intron expression) was 7.77. The “Fold Change” value (gene SNIP1, intron expression) was 7.72, the “Fold Change” value (gene SNRP70, intron expression) was 7.52 and the “Fold Change” value (gene SPOP, intron expression) was 7.71. For the same compound, the “Fold Change” value (gene SPRED2, change in expression level) was 15.03, the “Fold Change (change in expression level of intron probe set)” value (gene SPTLC2, transcript cluster 3573152) was 5.02 and the “Fold Change” value (gene STARD7, intron expression) was 7.65. For the same compound, the “Fold Change” value (gene STIP1, intron expression) was 7.71, the “Fold Change” value (gene SUPV3L1, change in expression level) was 14.99 and the “Fold Change” value (gene TBC1D10B, intron expression) was 7.74. The “Fold Change” value (gene TCP1, intron expression) was 7.92, the “Fold Change” value (gene THRAP1, intron expression) was 7.84 and the “Fold Change” value (gene TMEM2, intron expression) was 7.52. For the same compound, the “Fold Change” value (gene TOP1, intron expression) was 7.93, the “Fold Change” value (gene TXNDC9 // LYG2, intron expression) was 7.69 and the “Fold Change” value (gene UBE2J1, intron expression) was 7.66. The “Fold Change” value (gene USP36, intron expression) was 7.92, the “Fold Change” value (gene VAPA, intron expression) was 7.56 and the “Fold Change” value (gene WAC, intron expression) was 7.92. The “Fold Change” value (gene WDR3, intron expression) was 7.63, the “Fold Change” value (gene YIPF3 // C6orf154, intron expression) was 7.61 and the “Fold Change” value (gene YME1L1, intron expression) was 7.84. For the same compound, the “Fold Change” value (gene YTHDF1, intron expression) was 7.83, the “Fold Change” value (gene ZNF148, intron expression) was 7.69 and the “Fold Change” value (gene ZNF473, intron expression) was 7.87.
